Earlier results on one compound are cited in patent US20070184084A1, “IMPLANTABLE ELASTOMERIC CAPROLACTONE DEPOT COMPOSITIONS AND USES THEREOF” (priority 2003, published 2007).

The conditions of this series: reported value.

Each structure is given as a SMILES string.

On to `CC(=O)OCC(COC(C)=O)OC(C)=O` [triacetin], for which the solubility in water is recorded as 7.17 grams in 100 ml of water.
